# Tests used:
# [1] = tested on: SETVI (Foxtail, Green); assay: Postemergence herbicidal evaluation; assay type: in vivo, Setaria viridis; settings: for Herbicidal rating SETVI: postemergence
# Outline: (§1)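 Seedlings grown about two weeks were sprayed at 40 psi with compound dispersed in 50/50 acetone/water plus 0.5% TWEEN 20, at about 0.0156 to 0.500 kg/ha. Plants were kept in the greenhouse and scored 4–5 weeks later on a 0–9 visual scale against untreated controls.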
# [2] = tested on: MOOVA (Monochoria); assay: Preemergence weed control under flooded paddy conditions; assay type: in vivo, Monochoria vaginalis; settings: rated 3-4 weeks after treatment
# Outline: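 Greenhouse paddy assay. Acetone/water (50/50 v/v) solutions dosed into flood water, equivalent to about 0.0313 to 0.500 kg/ha active ingredient, over seeds planted 0.5 cm deep in silt loam. Score: 0-9 visual, based on stand, vigor, malformation, size and chlorosis, 3 to 4 weeks after treatment.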
# [3] = tested on: ECHORC (Watergrass (Calif.)); assay: as above; assay type: in vivo, Echinochloa oryzoides; settings: rated 3-4 weeks after treatment
# Outline: (§2)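 Seeds or propagules sown in silt loam kept flooded 1.5-3 cm; compounds in 50/50 acetone/water pipetted into flood water at about 0.0313 to 0.500 kg/ha. Greenhouse; visual 0-9 rating versus untreated control 3-4 weeks after treatment.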
# [4] = tested on: CYPSE (Flatsedge); assay: Postemergence weed control under flooded paddy conditions; assay type: in vivo, Cyperus serotinus; settings: postemergence weeds
# Outline: (§3)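 With weeds 3 to 5 cm tall and rice at the 1.5 to 2.5 leaf stage, containers were flooded and water held 1.5 to 3 cm above soil. Compounds in 50/50 v/v aqueous/acetone went into the flood water at about 0.0313 to 0.500 kg/ha a.i. Effects were visually rated 0–9 against controls after three to four weeks in the greenhouse.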
# [5] = tested on: GALAP (Galium); assay: Postemergence herbicidal evaluation; assay type: in vivo, Galium aparine; settings: for Herbicidal rating GALAP: postemergence
# Outline: as §1
# [6] = tested on: ABUTH (Velvetleaf); assay: Postemergence herbicidal evaluation; assay type: in vivo, Abutilon theophrasti; settings: for Herbicidal rating ABUTH: postemergence
# Outline: as §1
# [7] = tested on: CYPIR (Rice Flatsedge); assay: Postemergence weed control under flooded paddy conditions; assay type: in vivo, Cyperus iria; settings: postemergence weeds
# Outline: as §3
# [8] = tested on: ORYSAT (Rice, Tebonnet); assay: Postemergence herbicidal evaluation; assay type: in vivo, Oryza sativa, (L.) Tebonnet; settings: for Herbicidal rating ORYSAT: postemergence
# Outline: as §1
# [9] = tested on: SAGPY (Arrowhead (Pygmaea)); assay: Postemergence weed control under flooded paddy conditions; assay type: in vivo, Sagittaria pygmaea; settings: postemergence weeds
# Outline: as §3
# [10] = tested on: ECHCG (Barnyardgrass); assay: Postemergence herbicidal evaluation; assay type: in vivo, Echinochloa crus-galli; settings: for Herbicidal rating ECHCG: postemergence
# Outline: as §1
# [11] = tested on: CYPIR (Rice Flatsedge); assay: Preemergence weed control under flooded paddy conditions; assay type: in vivo, Cyperus iria; settings: rated 3-4 weeks after treatment
# Outline: as §2
# [12] = rate 0.0313 kg/ha, 3-4 weeks after treatment
# [13] = rate 0.0625 kg/ha, 3-4 weeks after treatment
# [14] = rate 0.1250 kg/ha, 3-4 weeks after treatment
# [15] = rate 0.2500 kg/ha, 3-4 weeks after treatment
# [16] = Rate 0.0313 kg/ha, rated 3 to 4 weeks after treatment
# [17] = Rate 0.0625 kg/ha, rated 3 to 4 weeks after treatment
# [18] = Rate 0.1250 kg/ha, rated 3 to 4 weeks after treatment
# [19] = Rate 0.2500 kg/ha, rated 3 to 4 weeks after treatment
# [20] = Rate 0.5000 kg/ha, rated 3 to 4 weeks after treatment
smiles,measurement,setting,value
"CCOC(=O)CN1C(=O)C(CC(=O)OC(C)C)SC1=Nc1cc(-n2c(=O)cc(C(F)(F)F)n(C)c2=O)c(F)cc1Cl (stereo not drawn) [Compound 55, 2-{{2-Chloro-5-[3,6-dihydro-3-methyl-2,6-dioxo-4-(trifluoromethyl)-1(2H)-pyrimidinyl]-4-fluoro-phenyl}imino}-4-oxo-3,5-thiazolidinediacetic acid, 3-ethyl isopropyl ester]",Postemergence herbicidal rating SETVI,[1]; Rate 0.0158 kg/ha,9.0
same,Postemergence herbicidal rating SETVI,[1]; Rate 0.0313 kg/ha,9.0
same,Postemergence herbicidal rating SETVI,[1]; Rate 0.0625 kg/ha,9.0
same,Postemergence herbicidal rating SETVI,[1]; Rate 0.1250 kg/ha,9.0
same,Postemergence herbicidal rating SETVI,[1]; Rate 0.2500 kg/ha,9.0
same,Herbicidal rating MOOVA,[2]; 0.0313 kg/ha,9.0
same,Herbicidal rating MOOVA,[2]; 0.0625 kg/ha,9.0
same,Herbicidal rating MOOVA,[2]; 0.1250 kg/ha,9.0
same,Herbicidal rating MOOVA,[2]; 0.2500 kg/ha,9.0
same,Herbicidal rating ECHORC,[3]; 0.0313 kg/ha,7.0
same,Herbicidal rating ECHORC,[3]; 0.0625 kg/ha,7.0
same,Herbicidal rating ECHORC,[3]; 0.1250 kg/ha,7.0
same,Herbicidal rating ECHORC,[3]; 0.2500 kg/ha,7.0
same,Herbicidal rating CYPSE,[4]; [12],0.0
same,Herbicidal rating CYPSE,[4]; [13],0.0
same,Herbicidal rating CYPSE,[4]; [14],0.0
same,Herbicidal rating CYPSE,[4]; [15],0.0
same,Postemergence herbicidal rating GALAP,[5]; Rate 0.0158 kg/ha,6.0
same,Postemergence herbicidal rating GALAP,[5]; Rate 0.0313 kg/ha,3.3
same,Postemergence herbicidal rating GALAP,[5]; Rate 0.0625 kg/ha,7.0
same,Postemergence herbicidal rating GALAP,[5]; Rate 0.1250 kg/ha,9.0
same,Postemergence herbicidal rating GALAP,[5]; Rate 0.2500 kg/ha,9.0
same,Postemergence herbicidal rating ABUTH,[6]; Rate 0.0158 kg/ha,8.0
same,Postemergence herbicidal rating ABUTH,[6]; Rate 0.0313 kg/ha,9.0
same,Postemergence herbicidal rating ABUTH,[6]; Rate 0.0625 kg/ha,9.0
same,Postemergence herbicidal rating ABUTH,[6]; Rate 0.1250 kg/ha,9.0
same,Postemergence herbicidal rating ABUTH,[6]; Rate 0.2500 kg/ha,9.0
same,Herbicidal rating CYPIR,[7]; [12],9.0
same,Herbicidal rating CYPIR,[7]; [13],9.0
same,Herbicidal rating CYPIR,[7]; [14],9.0
same,Herbicidal rating CYPIR,[7]; [15],9.0
same,Postemergence herbicidal rating ORYSAT,[8]; Rate 0.0158 kg/ha,2.5
same,Postemergence herbicidal rating ORYSAT,[8]; Rate 0.0313 kg/ha,3.5
same,Postemergence herbicidal rating ORYSAT,[8]; Rate 0.0625 kg/ha,4.2
same,Postemergence herbicidal rating ORYSAT,[8]; Rate 0.1250 kg/ha,5.5
same,Postemergence herbicidal rating ORYSAT,[8]; Rate 0.2500 kg/ha,6.5
same,Herbicidal rating SAGPY,[9]; [12],0.0
same,Herbicidal rating SAGPY,[9]; [13],0.0
same,Herbicidal rating SAGPY,[9]; [14],0.0
same,Herbicidal rating SAGPY,[9]; [15],0.0
same,Postemergence herbicidal rating ECHCG,[10]; Rate 0.0158 kg/ha,9.0
same,Postemergence herbicidal rating ECHCG,[10]; Rate 0.0313 kg/ha,9.0
same,Postemergence herbicidal rating ECHCG,[10]; Rate 0.0625 kg/ha,9.0
same,Postemergence herbicidal rating ECHCG,[10]; Rate 0.1250 kg/ha,9.0
same,Postemergence herbicidal rating ECHCG,[10]; Rate 0.2500 kg/ha,9.0
same,Herbicidal rating CYPIR,[11]; 0.0313 kg/ha,9.0
same,Herbicidal rating CYPIR,[11]; 0.0625 kg/ha,9.0
same,Herbicidal rating CYPIR,[11]; 0.1250 kg/ha,9.0
same,Herbicidal rating CYPIR,[11]; 0.2500 kg/ha,9.0
"C=CCN1C(=O)C(CC(=O)NS(=O)(=O)c2ccccc2)SC1=Nc1cc(-n2c(=O)cc(C(F)(F)F)n(C)c2=O)c(F)cc1Cl (stereo not drawn) [Compound 101, 3-Allyl-2-{{2-chloro-5-[3,6-dihydro-3-methyl-2,6-dioxo-4-(trifluoromethyl)-1(2H)-pyrimidinyl]-4-fluorophenyl}imino}-4-oxo-N-(phenylsulfonyl)-5-thiazolidineacetamide]",Herbicidal rating SETVI,[1]; rate 0.0156 kg/ha,2.0
same,Herbicidal rating SETVI,[1]; rate 0.0313 kg/ha,1.0
same,Herbicidal rating SETVI,[1]; rate 0.0625 kg/ha,5.0
same,Herbicidal rating SETVI,[1]; rate 0.1250 kg/ha,5.0
same,MOOVA herbicidal effect rating,[2]; 0.0313 kg/ha,5.0
same,MOOVA herbicidal effect rating,[2]; 0.0625 kg/ha,5.0
same,MOOVA herbicidal effect rating,[2]; 0.1250 kg/ha,7.0
same,MOOVA herbicidal effect rating,[2]; 0.2500 kg/ha,9.0
same,MOOVA herbicidal effect rating,[2]; 0.5000 kg/ha,9.0
same,ECHORC herbicidal effect rating,[3]; 0.0313 kg/ha,0.0
same,ECHORC herbicidal effect rating,[3]; 0.0625 kg/ha,0.0
same,ECHORC herbicidal effect rating,[3]; 0.1250 kg/ha,0.0
same,ECHORC herbicidal effect rating,[3]; 0.2500 kg/ha,0.0
same,ECHORC herbicidal effect rating,[3]; 0.5000 kg/ha,0.0
same,Herbicidal rating CYPSE,[4]; [16],0.0
same,Herbicidal rating CYPSE,[4]; [17],0.0
same,Herbicidal rating CYPSE,[4]; [18],0.0
same,Herbicidal rating CYPSE,[4]; [19],0.0
same,Herbicidal rating CYPSE,[4]; [20],0.0
same,Herbicidal rating GALAP,[5]; rate 0.0156 kg/ha,0.0
same,Herbicidal rating GALAP,[5]; rate 0.0313 kg/ha,1.0
same,Herbicidal rating GALAP,[5]; rate 0.0625 kg/ha,1.0
same,Herbicidal rating GALAP,[5]; rate 0.1250 kg/ha,2.0
same,Herbicidal rating ABUTH,[6]; rate 0.0156 kg/ha,3.0
same,Herbicidal rating ABUTH,[6]; rate 0.0313 kg/ha,7.0
same,Herbicidal rating ABUTH,[6]; rate 0.0625 kg/ha,9.0
same,Herbicidal rating ABUTH,[6]; rate 0.1250 kg/ha,9.0
same,Herbicidal rating CYPIR,[7]; [16],0.0
same,Herbicidal rating CYPIR,[7]; [17],0.0
same,Herbicidal rating CYPIR,[7]; [18],0.0
same,Herbicidal rating CYPIR,[7]; [19],3.0
same,Herbicidal rating CYPIR,[7]; [20],4.0
same,Herbicidal rating ORYSAT,[8]; rate 0.0156 kg/ha,2.5
same,Herbicidal rating ORYSAT,[8]; rate 0.0313 kg/ha,3.0
same,Herbicidal rating ORYSAT,[8]; rate 0.0625 kg/ha,4.0
same,Herbicidal rating ORYSAT,[8]; rate 0.1250 kg/ha,4.0
same,Herbicidal rating SAGPY,[9]; [16],0.0
same,Herbicidal rating SAGPY,[9]; [17],0.0
same,Herbicidal rating SAGPY,[9]; [18],0.0
same,Herbicidal rating SAGPY,[9]; [19],2.0
same,Herbicidal rating SAGPY,[9]; [20],4.0
same,Herbicidal rating ECHCG,[10]; rate 0.0156 kg/ha,1.0
same,Herbicidal rating ECHCG,[10]; rate 0.0313 kg/ha,2.0
same,Herbicidal rating ECHCG,[10]; rate 0.0625 kg/ha,3.0
same,Herbicidal rating ECHCG,[10]; rate 0.1250 kg/ha,5.0
same,CYPIR herbicidal effect rating,[11]; 0.0313 kg/ha,0.0
same,CYPIR herbicidal effect rating,[11]; 0.0625 kg/ha,0.0
same,CYPIR herbicidal effect rating,[11]; 0.1250 kg/ha,0.0
same,CYPIR herbicidal effect rating,[11]; 0.2500 kg/ha,3.0
same,CYPIR herbicidal effect rating,[11]; 0.5000 kg/ha,4.0

# Reference: patent publication US20020137929A1, “1 - (3-heterocyclylphenyl) isothiourea, -isourea, -guanidine and -amidine herbicidal agents” (Intellectual Property Department, BASF Aktiengesellschaft, priority 1998, published 2002)
